Assay results: patent US20260258010A1, “THIOPHENE-2-CARBOXYLIC ACID DERIVATIVE, AND PREPARATION METHOD THEREFOR AND MEDICAL USE THEREOF” (CHINA PHARMACEUTICAL UNIVERSITY, priority 2023, published 2026)

target: T1, P2Y14 receptor (Homo sapiens, UniProt Q15391); assay: cAMP inhibition assay in HEK293 cells stably transfected with the P2Y14 receptor (UDPG-stimulated, cAMP Glo); assay type: cell-based; details: 100 nM compound; HEK293 stably transfected with P2Y14 receptor; 30 μM Forskolin, 1 μM UDPG, 4 h; inhibition rate from cAMP content; read-out: Inhibition @ 100 nM
T1 construct: expressed in transfected cells; host or cells: HEK293
T1 sequence (Q15391 1-338): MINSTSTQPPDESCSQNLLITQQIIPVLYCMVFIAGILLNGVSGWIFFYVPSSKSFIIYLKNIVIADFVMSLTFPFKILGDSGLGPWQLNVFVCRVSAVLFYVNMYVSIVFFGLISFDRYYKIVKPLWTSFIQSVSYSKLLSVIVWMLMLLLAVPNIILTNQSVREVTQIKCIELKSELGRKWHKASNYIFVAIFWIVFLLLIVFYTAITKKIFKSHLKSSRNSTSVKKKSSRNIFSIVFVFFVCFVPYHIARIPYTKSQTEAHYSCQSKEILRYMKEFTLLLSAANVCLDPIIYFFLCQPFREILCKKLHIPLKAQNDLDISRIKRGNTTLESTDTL
Procedure: An HEK293 cell strain stably transfected with the P2Y14 receptor was cultured in a DMEM culture medium (containing […], 100 U/mL penicillin, and 100 μg/mL streptomycin). Before the experiment, the cells were seeded into a culture plate at a density of 1×10^5 cells/well, and a serum-free culture medium was used instead. The cells were cultured at 37° C. with […] and 5% CO2 humidity. IBMX was added to inhibit the activity of PDEs, thereby ensuring a relatively high level of cAMP. The AC agonist Forskolin (30 μM) was adopted to stimulate the production of cellular cAMP. Test compounds at different concentrations (0.01 nm, 0.1 nm, 1 nm, 10 nm, and 100 nm) were added in advance, and PPTN was used as a positive control. Subsequently, 1 μM P2Y14 receptor agonist UDPG was added, and after 4 h, the content of intracellular cAMP was measured using a cAMP Glo™ Assay kit (PROMEGA Co. Ltd., USA). The inhibition rate was calculated based on the cAMP content.

Compound | inhibition at 0.1 µM
Cc1ccc(C(=O)Nc2cc(C(=O)O)sc2Oc2ccc(F)cc2)cc1 [Compound 2, 5-(4-fluorophenoxy)-4-(4-methylbenzamido)thiophene-2-carboxylic acid] | 70.4%
Cc1ccc(C(=O)Nc2cc(C(=O)O)sc2Oc2ccccc2)cc1 [Compound 3-1] | 44.1%
Cc1ccc(C(=O)Nc2cc(C(=O)O)sc2Oc2cccc(F)c2)cc1 [Compound 3-2] | 69.6%
Cc1ccc(C(=O)Nc2cc(C(=O)O)sc2Oc2ccccc2F)cc1 [Compound 3-3] | 66%
Cc1ccc(C(=O)Nc2cc(C(=O)O)sc2Oc2ccc(Cl)cc2)cc1 [Compound 3-4] | 30.9%
Cc1ccc(C(=O)Nc2cc(C(=O)O)sc2Oc2cccc(Cl)c2)cc1 [Compound 3-5] | 36.2%
Cc1ccc(C(=O)Nc2cc(C(=O)O)sc2Oc2ccccc2Cl)cc1 [Compound 3-6] | 40.4%
Cc1ccc(C(=O)Nc2cc(C(=O)O)sc2Oc2ccc(C(F)(F)F)cc2)cc1 [Compound 3-7] | 62.6%
Cc1ccc(C(=O)Nc2cc(C(=O)O)sc2Oc2cccc(C(F)(F)F)c2)cc1 [Compound 3-8] | 52.8%
Cc1ccc(C(=O)Nc2cc(C(=O)O)sc2Oc2ccccc2C(F)(F)F)cc1 [Compound 3-9] | 57.1%
Cc1ccc(C(=O)Nc2cc(C(=O)O)sc2Oc2ccc(OC(F)(F)F)cc2)cc1 [Compound 3-10] | 32.7%
CC(=O)c1ccc(Oc2sc(C(=O)O)cc2NC(=O)c2ccc(C)cc2)cc1 [Compound 3-11] | 34.5%
Cc1ccc(C(=O)Nc2cc(C(=O)O)sc2Oc2ccc(C(=O)O)cc2)cc1 [Compound 3-12] | 44.1%
Cc1ccc(C(=O)Nc2cc(C(=O)O)sc2Oc2ccc(C#N)cc2)cc1 [Compound 3-13] | 46.2%
Cc1ccc(C(=O)Nc2cc(C(=O)O)sc2Oc2ccc(S(C)(=O)=O)cc2)cc1 [Compound 3-14] | 62.8%
Cc1ccc(Oc2sc(C(=O)O)cc2NC(=O)c2ccc(C)cc2)cc1 [Compound 3-15] | 88.4%
Cc1ccc(C(=O)Nc2cc(C(=O)O)sc2Oc2cccc(C)c2)cc1 [Compound 3-16] | 55.8%
Cc1ccc(C(=O)Nc2cc(C(=O)O)sc2Oc2ccccc2C)cc1 [Compound 3-17] | 45.8%
COc1ccc(Oc2sc(C(=O)O)cc2NC(=O)c2ccc(C)cc2)cc1 [Compound 3-18] | 69.8%
CCc1ccc(Oc2sc(C(=O)O)cc2NC(=O)c2ccc(C)cc2)cc1 [Compound 3-19] | 67.4%

Compound | inhibition at 0.1 µM
CCCc1ccc(Oc2sc(C(=O)O)cc2NC(=O)c2ccc(C)cc2)cc1 [Compound 3-20] | 66.3%
Cc1ccc(C(=O)Nc2cc(C(=O)O)sc2Oc2ccc(C(C)C)cc2)cc1 [Compound 3-21] | 54.3%
Cc1ccc(C(=O)Nc2cc(C(=O)O)sc2Oc2ccc(C(C)(C)C)cc2)cc1 [Compound 3-22] | 34.6%
CC(=O)Nc1ccc(Oc2sc(C(=O)O)cc2NC(=O)c2ccc(C)cc2)cc1 [Compound 3-23] | 81.1%
Cc1ccc(C(=O)Nc2cc(C(=O)O)sc2Oc2ccc(C(=O)NCC3CS(=O)(=O)C3)cc2)cc1 [Compound 3-24] | 75.6%
Cc1ccc(C(=O)Nc2cc(C(=O)O)sc2Oc2ccc(C(=O)NCCC3CCOCC3)cc2)cc1 [Compound 3-25] | 49.5%
Cc1ccc(C(=O)Nc2cc(C(=O)O)sc2Oc2cccnc2)cc1 [Compound 6-1] | 62%
Cc1ccc(C(=O)Nc2cc(C(=O)O)sc2Oc2ccc(F)nc2)cc1 [Compound 6-2] | 88.4%
Cc1ccc(C(=O)Nc2cc(C(=O)O)sc2Oc2ccccn2)cc1 [Compound 6-3] | 74.9%
Cc1ccc(C(=O)Nc2cc(C(=O)O)sc2Oc2ccc(F)cn2)cc1 [Compound 6-5] | 75.5%
Cc1ccc(C(=O)Nc2cc(C(=O)O)sc2Oc2ccncc2)cc1 [Compound 6-6] | 43.5%
Cc1ccc(C(=O)Nc2cc(C(=O)O)sc2Oc2ccsn2)cc1 [Compound 6-7] | 60.3%
Cc1ccc(Nc2sc(C(=O)O)cc2NC(=O)c2ccc(C)cc2)cc1 [Compound 8, 4-(4-methylbenzamido)-5-(p-tolylamino)thiophene-2-carboxylic acid] | 75.6%
Cc1ccc(C(=O)Nc2cc(C(=O)O)sc2Nc2ccccc2)cc1 [Compound 9-1] | 82.3%
Cc1ccc(C(=O)Nc2cc(C(=O)O)sc2Nc2ccc(F)cc2)cc1 [Compound 9-2] | 55.7%
CCc1ccc(Nc2sc(C(=O)O)cc2NC(=O)c2ccc(C)cc2)cc1 [Compound 9-3] | 71.5%
Cc1ccc(C(=O)Nc2cc(C(=O)O)sc2Nc2ccc(C(C)C)cc2)cc1 [Compound 9-4] | 59.8%
Cc1ccc(Sc2sc(C(=O)O)cc2NC(=O)c2ccc(C)cc2)cc1 [Compound 11, 4-(4-methylbenzamido)-5-(p-tolylthio)thiophene-2-carboxylic acid] | 75.6%
Cc1ccc(C(=O)Nc2cc(C(=O)O)sc2Sc2ccccc2)cc1 [Compound 12-1] | 57.5%
Cc1ccc(C(=O)Nc2cc(C(=O)O)sc2Sc2ccc(F)cc2)cc1 [Compound 12-2] | 61.4%

Compound | inhibition at 0.1 µM
CCc1ccc(Sc2sc(C(=O)O)cc2NC(=O)c2ccc(C)cc2)cc1 [Compound 12-3] | 67.5%
Cc1ccc(C(=O)Nc2cc(C(=O)O)sc2Sc2ccc(C(F)(F)F)cc2)cc1 [Compound 12-4] | 82.5%
Cc1ccc(Oc2sc(C(=O)O)cc2NC(=O)c2ccccc2)cn1 [Compound 14, 5-((6-methylpyridin-3-yl)oxy)-4-(benzamido)thiophene-2-carboxylic acid] | 86.9%
Cc1ccc(Oc2sc(C(=O)O)cc2NC(=O)c2ccc(F)cc2)cn1 [Compound 15-1] | 75.7%
Cc1ccc(Oc2sc(C(=O)O)cc2NC(=O)c2ccc(Cl)cc2)cn1 [Compound 15-2] | 75.4%
CCc1ccc(C(=O)Nc2cc(C(=O)O)sc2Oc2ccc(C)nc2)cc1 [Compound 15-3] | 46.4%
CCCc1ccc(C(=O)Nc2cc(C(=O)O)sc2Oc2ccc(C)nc2)cc1 [Compound 15-4] | 85.6%
Cc1ccc(Oc2sc(C(=O)O)cc2NC(=O)c2ccc(C(C)C)cc2)cn1 [Compound 15-5] | 78.7%
Cc1ccc(Oc2sc(C(=O)O)cc2NC(=O)c2ccc(C(C)(C)C)cc2)cn1 [Compound 15-6] | 86.1%
C#Cc1ccc(C(=O)Nc2cc(C(=O)O)sc2Oc2ccc(C)nc2)cc1 [Compound 15-7] | 94.6%
Cc1ccc(Oc2sc(C(=O)O)cc2NC(=O)c2ccc(C#N)cc2)cn1 [Compound 15-8] | 76.4%
Cc1ccc(Oc2sc(C(=O)O)cc2NC(=O)c2ccc(C(F)(F)F)cc2)cn1 [Compound 15-9] | 82.1%
COc1ccc(C(=O)Nc2cc(C(=O)O)sc2Oc2ccc(C)nc2)cc1 [Compound 15-10] | 91.3%
Cc1ccc(Oc2sc(C(=O)O)cc2NC(=O)c2ccc(C(=O)O)cc2)cn1 [Compound 15-11] | 79.3%
Cc1ccc(Oc2sc(C(=O)O)cc2NC(=O)c2ccc(C)nc2)cn1 [Compound 17, 4-(6-methylnicotinamido)-5-((6-methylpyridin-3-yl)oxy)thiophene-2-carboxylic acid] | 65.1%
Cc1ccc(C(=O)Nc2cc(C(=O)O)sc2Oc2ccc(C)nc2)nc1 [Compound 18-1] | 45.1%
Cc1ccc(Oc2sc(C(=O)O)cc2NC(=O)c2cnc(C)cn2)cn1 [Compound 18-2] | 48.2%
Cc1ccc(Oc2sc(C(=O)O)cc2NC(=O)c2cnc(C)nc2)cn1 [Compound 18-3] | 56.2%
Cc1ccc(Oc2sc(C(=O)O)cc2NC(=O)c2ccc(N(C)C)cc2)cn1 [Compound 18-4] | 46.8%
Cc1ccc(Oc2sc(C(=O)O)cc2NC(=O)c2cnn(C)c2)cn1 [Compound 18-5] | 45.8%

same assay, conditions: HEK293, read-out: Inhibition @ 100 nM

Compound | inhibition at 0.1 µM
Cc1ccc(C(=O)Nc2cc(C(=O)O)sc2Oc2ccc(C)cn2)cc1 [Compound 6-4] | 81.3%
